Results: PubChem BioAssay (NCI)
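Compound exposure: 48 hours, 5 concentrations, 96-well plates. GI50 marks 50% less growth. At the TGI there is no net growth.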 *1 amine or outer side, *2 acyl side, *3 side chain or, on linkers, in order; H or OH if unused. Where a SMILES comes first, the peptide text is derived from it. [ ]: non-standard residue; d: D form. ξ: configuration not given here. Ile(3ξ) = CCC(C)[C@H](N)C(=O)O; X33 = C=CCC(O[*:1])C(=O)[*:2]; NMeV = CN[C@H](C(=O)O)C(C)C; NMeA = CN[C@@H](C)C(=O)O; βAla = NCCC(=O)O

How the values were obtained:
Assay in all cases: inhibition of tumour cell growth, NCI panel, 48 h
IGROV1 ovarian = test system: IGROV1 ovarian
HT29 colon = test system: HT29 colon
OVCAR-8 ovarian = test system: OVCAR-8 ovarian
XF 498 CNS = test system: XF 498 CNS
HCT-116 colon = test system: HCT-116 colon
KM20L2 colon = test system: KM20L2 colon
SNB-78 CNS = test system: SNB-78 CNS
OVCAR-3 ovarian = test system: OVCAR-3 ovarian
HOP-92 NSCLC = test system: HOP-92 NSCLC
SK-MEL-5 melanoma = test system: SK-MEL-5 melanoma
NCI-H226 lung = test system: NCI-H226 lung
RXF-631 renal = test system: RXF-631 renal
HCC-2998 colon = test system: HCC-2998 colon
TK-10 renal = test system: TK-10 renal
SNB-19 CNS = test system: SNB-19 CNS
786-0 renal = test system: 786-0 renal
RPMI-8226 leukemia = test system: RPMI-8226 leukemia
SK-MEL-28 melanoma = test system: SK-MEL-28 melanoma
ACHN renal = test system: ACHN renal
K-562 leukemia = test system: K-562 leukemia
HL-60(TB) leukemia = test system: HL-60(TB) leukemia
HCT-15 colon = test system: HCT-15 colon
SK-OV-3 ovarian = test system: SK-OV-3 ovarian
SF-539 CNS = test system: SF-539 CNS
SNB-75 CNS = test system: SNB-75 CNS
DLD-1 colon = test system: DLD-1 colon
HOP-62 NSCLC = test system: HOP-62 NSCLC
SK-MEL-2 melanoma = test system: SK-MEL-2 melanoma
LOX IMVI melanoma = test system: LOX IMVI melanoma
CCRF-CEM leukemia = test system: CCRF-CEM leukemia
MOLT-4 leukemia = test system: MOLT-4 leukemia
SN12C renal = test system: SN12C renal
OVCAR-4 ovarian = test system: OVCAR-4 ovarian
SF-295 CNS = test system: SF-295 CNS
NCI-H23 lung = test system: NCI-H23 lung
NCI-H460 lung = test system: NCI-H460 lung
CAKI-1 renal = test system: CAKI-1 renal
SR leukemia = test system: SR leukemia
MALME-3M melanoma = test system: MALME-3M melanoma
RXF 393 renal = test system: RXF 393 renal
U251 CNS = test system: U251 CNS
UO-31 renal = test system: UO-31 renal
KM12 colon = test system: KM12 colon
OVCAR-5 ovarian = test system: OVCAR-5 ovarian
UACC-257 melanoma = test system: UACC-257 melanoma
SF-268 CNS = test system: SF-268 CNS
M19-MEL melanoma = test system: M19-MEL melanoma
COLO 205 colon = test system: COLO 205 colon
DMS 114 small cell lung = test system: DMS 114 small cell lung
A549 NSCLC = test system: A549 NSCLC
EKVX NSCLC = test system: EKVX NSCLC
LXFL 529 NSCLC = test system: LXFL 529 NSCLC
UACC-62 melanoma = test system: UACC-62 melanoma
A498 renal = test system: A498 renal
DMS 273 small cell lung = test system: DMS 273 small cell lung
M14 melanoma = test system: M14 melanoma
SW-620 colon = test system: SW-620 colon
MDA-MB-435 = test system: MDA-MB-435
NCI/ADR-RES ovarian = test system: NCI/ADR-RES ovarian
MCF7 breast = test system: MCF7 breast
NCI-H522 lung = test system: NCI-H522 lung
HS 578T breast = test system: HS 578T breast
PC-3 prostate = test system: PC-3 prostate
DU-145 prostate = test system: DU-145 prostate
MDA-MB-231 breast = test system: MDA-MB-231 breast
BT-549 breast = test system: BT-549 breast
T-47D breast = test system: T-47D breast

Compound: C=CCC1OC(=O)CCNC(=O)[C@H](C)N(C)C(=O)[C@H](C(C)C)N(C)C(=O)[C@H](C(C)CC)NC(=O)[C@@H]2CCCN2C1=O (stereo partly specified) (cyclo([Ile(3ξ)][NMeV][NMeA][βAla][X33]P))
- TGI (IGROV1 ovarian): > 100 µM
- TGI (HT29 colon): > 100 µM
- TGI (OVCAR-8 ovarian): > 100 µM
- TGI (XF 498 CNS): 41.8 µM
- TGI (HCT-116 colon): > 100 µM
- TGI (KM20L2 colon): > 52 µM
- TGI (SNB-78 CNS): > 100 µM
- TGI (OVCAR-3 ovarian): > 100 µM
- TGI (HOP-92 NSCLC): > 30.9 µM
- TGI (SK-MEL-5 melanoma): 10.4 µM
- TGI (NCI-H226 lung): 29.2 µM
- TGI (RXF-631 renal): > 100 µM
- TGI (HCC-2998 colon): 27.7 µM
- TGI (TK-10 renal): > 100 µM
- TGI (SNB-19 CNS): > 100 µM
- TGI (786-0 renal): > 100 µM
- TGI (RPMI-8226 leukemia): > 100 µM
- TGI (SK-MEL-28 melanoma): > 100 µM
- TGI (ACHN renal): > 100 µM
- TGI (K-562 leukemia): > 71.6 µM
- TGI (HL-60(TB) leukemia): > 100 µM
- TGI (HCT-15 colon): > 100 µM
- TGI (SK-OV-3 ovarian): > 100 µM
- TGI (SF-539 CNS): > 79.4 µM
- TGI (SNB-75 CNS): > 90.5 µM
- TGI (DLD-1 colon): > 100 µM
- TGI (HOP-62 NSCLC): > 21 µM
- TGI (SK-MEL-2 melanoma): 12.6 µM
- TGI (LOX IMVI melanoma): > 31.7 µM
- TGI (CCRF-CEM leukemia): > 100 µM
- TGI (MOLT-4 leukemia): > 100 µM
- TGI (SN12C renal): > 100 µM
- TGI (OVCAR-4 ovarian): > 100 µM
- TGI (SF-295 CNS): > 100 µM
- TGI (NCI-H23 lung): > 100 µM
- TGI (NCI-H460 lung): > 100 µM
- TGI (CAKI-1 renal): > 78.6 µM
- TGI (SR leukemia): > 100 µM
- TGI (MALME-3M melanoma): 16.5 µM
- TGI (RXF 393 renal): > 100 µM
- TGI (U251 CNS): > 100 µM
- TGI (UO-31 renal): 99.6 µM
- TGI (KM12 colon): > 100 µM
- TGI (OVCAR-5 ovarian): > 100 µM
- TGI (UACC-257 melanoma): 36.3 µM
- TGI (SF-268 CNS): 58.4 µM
- TGI (M19-MEL melanoma): > 67.6 µM
- TGI (COLO 205 colon): > 100 µM
- TGI (DMS 114 small cell lung): > 100 µM
- TGI (A549 NSCLC): > 100 µM
- TGI (EKVX NSCLC): > 100 µM
- TGI (LXFL 529 NSCLC): > 100 µM
- TGI (UACC-62 melanoma): > 46.2 µM
- TGI (A498 renal): > 100 µM
- TGI (DMS 273 small cell lung): 28.9 µM
- TGI (M14 melanoma): 7.87 µM
- TGI (SW-620 colon): > 100 µM

Compound: Nc1n[n+](=O)c2ccccc2n1O
- GI50 (MDA-MB-435): > 100 µM
- TGI (MDA-MB-435): > 100 µM
- TGI (IGROV1 ovarian): > 100 µM
- TGI (HT29 colon): > 100 µM
- TGI (OVCAR-8 ovarian): > 100 µM
- TGI (XF 498 CNS): > 100 µM
- GI50 (HCT-116 colon): 62.9 µM
- TGI (HCT-116 colon): > 100 µM
- GI50 (NCI/ADR-RES ovarian): 55.2 µM
- TGI (NCI/ADR-RES ovarian): > 100 µM
- TGI (SNB-78 CNS): > 100 µM
- GI50 (MCF7 breast): 60.5 µM
- TGI (MCF7 breast): > 100 µM
- TGI (NCI-H522 lung): > 100 µM
- TGI (OVCAR-3 ovarian): > 100 µM
- GI50 (HS 578T breast): > 100 µM
- TGI (HS 578T breast): > 100 µM
- TGI (HOP-92 NSCLC): > 100 µM
- TGI (SK-MEL-5 melanoma): > 65.7 µM
- TGI (NCI-H226 lung): > 100 µM
- TGI (RXF-631 renal): > 100 µM
- GI50 (HCC-2998 colon): 50.7 µM
- TGI (HCC-2998 colon): > 100 µM
- TGI (TK-10 renal): > 100 µM
- TGI (SNB-19 CNS): > 100 µM
- TGI (786-0 renal): > 100 µM
- TGI (RPMI-8226 leukemia): > 100 µM
- TGI (SK-MEL-28 melanoma): > 100 µM
- TGI (ACHN renal): > 100 µM
- TGI (K-562 leukemia): > 100 µM
- TGI (HL-60(TB) leukemia): > 100 µM
- TGI (HCT-15 colon): > 100 µM
- TGI (SK-OV-3 ovarian): > 100 µM
- TGI (SF-539 CNS): > 100 µM
- GI50 (PC-3 prostate): 94.3 µM
- TGI (PC-3 prostate): > 100 µM
- TGI (SNB-75 CNS): > 100 µM
- TGI (HOP-62 NSCLC): > 100 µM
- TGI (SK-MEL-2 melanoma): > 100 µM
- TGI (LOX IMVI melanoma): > 100 µM
- TGI (CCRF-CEM leukemia): > 100 µM
- TGI (MOLT-4 leukemia): > 100 µM
- TGI (SN12C renal): > 100 µM
- GI50 (DU-145 prostate): 69.1 µM
- TGI (DU-145 prostate): > 100 µM
- TGI (OVCAR-4 ovarian): > 100 µM
- TGI (SF-295 CNS): > 100 µM
- GI50 (NCI-H23 lung): 29.6 µM
- TGI (NCI-H23 lung): > 100 µM
- TGI (NCI-H460 lung): > 100 µM
- TGI (CAKI-1 renal): > 100 µM
- GI50 (SR leukemia): 20.6 µM
- TGI (SR leukemia): > 100 µM
- TGI (MALME-3M melanoma): > 100 µM
- GI50 (MDA-MB-231 breast): > 100 µM
- TGI (MDA-MB-231 breast): > 100 µM
- TGI (RXF 393 renal): > 100 µM
- TGI (U251 CNS): > 100 µM
- TGI (UO-31 renal): > 100 µM
- TGI (KM12 colon): > 100 µM
- GI50 (BT-549 breast): 19.3 µM
- TGI (BT-549 breast): > 100 µM
- TGI (OVCAR-5 ovarian): > 100 µM
- TGI (UACC-257 melanoma): > 100 µM
- TGI (SF-268 CNS): > 100 µM
- GI50 (T-47D breast): 38.4 µM
- TGI (T-47D breast): > 100 µM
- TGI (M19-MEL melanoma): > 100 µM
- TGI (COLO 205 colon): > 100 µM
- TGI (DMS 114 small cell lung): > 100 µM
- TGI (A549 NSCLC): > 100 µM
- TGI (EKVX NSCLC): > 100 µM
- TGI (LXFL 529 NSCLC): > 100 µM
- TGI (UACC-62 melanoma): > 100 µM
- GI50 (A498 renal): 11.9 µM
- TGI (A498 renal): > 100 µM
- TGI (DMS 273 small cell lung): > 100 µM
- TGI (M14 melanoma): > 100 µM
- TGI (SW-620 colon): > 100 µM
